Assay results from patent publication US11723890B2, “Methods of treatment using an mTORC1 modulator” (Navitor Pharmaceuticals, Inc., priority 2019, dated 2023).
Like-named read-outs stand apart in the source and are kept apart here.

Assays:
[1] = Example 3: plasma pharmacokinetics of two sequential doses; type: in vivo, human; settings: for Tmax / AUC / AUC(0-t) / Cmax / half-life: male, human, 2400 mg
Protocol: Up to approximately 24 healthy male volunteers were randomly assigned (1:1) to double-blind treatment with either compound A 2400 mg or placebo. Each subject received one dose of either 2400 mg compound A or placebo on Day 1 and a second dose of the same treatment on Day 3.
The initial dose of double-blind treatment was administered between 7:00 AM and 10:00 AM on Day 1. The second (Day 3) dose was given 48 hours ±30 minutes following the first (Day 1) dose. Predose assessments were performed up to 120 minutes prior to dosing on Day 1 and Day 3, except for the predose dECG, which was performed within 30 minutes prior to dosing on both Day 1 and Day 3, the predose qEEG and ERP, which was performed within 60 minutes prior to dosing on Day 1 and Day 3, and the predose PK blood draw, which was performed within 15 minutes prior to dosing on Day 3.
Pharmacodynamics were assessed via qEEG and event-related potential (ERP). Frequent PK sampling was included in the study to evaluate the PK of two doses of compound A given approximately 48 hours apart. A PK/PD model was developed that measures qEEG and ERP changes as a function of plasma concentration of compound A as well as determines whether there are any PK/PD differences between Dose 1 and Dose 2 effects.
Subjects were required to refrain from eating or drinking from 2 hours prior to dose administration until two hours after dose administration.

rat = assay: Single oral dose toxicology study in rat; type: in vivo
Protocol: Nonclinical toxicology studies have been performed with compound A in the rat and cynomolgus monkey. Adverse effects were not observed after single oral doses of up to 500 mg/kg in rat and up to 2000 mg/kg in cynomolgus monkey.

[2] = healthy males, 2400 mg oral, Day 1, N 11
[3] = healthy males, 2400 mg oral, second dose, Day 3, N 11

Structure (SMILES): CC(C)(C[C@H](N)C(=O)O)C(F)F [Compound A, (S)-2-amino-5,5-difluoro-4,4-dimethylpentanoic acid]
- accumulation between Day 1 and Day 3 ([1]; 2400 mg oral 48 hours apart): negligible accumulation
- difference in geometric mean exposure (Cmax, AUC(0-24), AUC(0-48)) between Day 1 and Day 3 ([1]; 2400 mg oral on Days 1 and 3): ≤ 5%
- time of peak concentration for the mean profile ([1]; 2400 mg oral, day 1, post-dose): 1 h
- time of highest concentration for the mean profile ([1]; 2400 mg oral, day 3, post-dose): 0.5 h
- mean plasma concentration versus time profiles on days 1 and 3 ([1]; FIG. 13): nearly superimposable
- AUC(0-24), Max [1, 2]: 416,000 h*ng/mL
- AUC(0-24), Min [1, 2]: 298,000 h*ng/mL
- AUC(0-48), Max [1, 2]: 525,000 h*ng/mL
- AUC(0-48), Min [1, 2]: 357,000 h*ng/mL
- AUClast, Max [1, 2]: 481,000 h*ng/mL
- AUClast, Min [1, 2]: 298,000 h*ng/mL
- Cmax, Max [1, 2]: 57,700 ng/mL
- Cmax, Min [1, 2]: 23,300 ng/mL
- T1/2, Max [1, 2]: 15.2 h
- T1/2, Min [1, 2]: 9.20 h
- AUC(0-24), Max [1, 3]: 449,000 h*ng/mL
- AUC(0-24), Min [1, 3]: 294,000 h*ng/mL
- AUC(0-48), Max [1, 3]: 584,000 h*ng/mL
- AUC(0-48), Min [1, 3]: 353,000 h*ng/mL
- AUClast, Max [1, 3]: 632,000 h*ng/mL
- AUClast, Min [1, 3]: 369,000 h*ng/mL
- Cmax, Max [1, 3]: 52,300 ng/mL
- Cmax, Min [1, 3]: 35,700 ng/mL
- T1/2, Max [1, 3]: 21.1 h
- T1/2, Min [1, 3]: 10.9 h
- Tmax ([1]; oral, all subjects, both dosing days (Days 1 and 3), read-out: individual Tmax values): 0.5 to 1 h
- AUC ([1]; po, healthy males, 2400 mg oral, Day 1, N 11, read-out: AUC(0-24), Geometric mean): 355 µg·h/mL
- AUC ([1]; po, healthy males, 2400 mg oral, Day 1, N 11, read-out: AUC(0-24), Mean): 358 µg·h/mL
- AUC ([1]; po, healthy males, 2400 mg oral, Day 1, N 11, read-out: AUC(0-24), Median): 366 µg·h/mL
- AUC ([1]; po, healthy males, 2400 mg oral, Day 1, N 11, read-out: AUC(0-48), Geometric mean): 438 µg·h/mL
- AUC ([1]; po, healthy males, 2400 mg oral, Day 1, N 11, read-out: AUC(0-48), Mean): 442 µg·h/mL
- AUC ([1]; po, healthy males, 2400 mg oral, Day 1, N 11, read-out: AUC(0-48), Median): 453 µg·h/mL
- AUC(0-t) ([1]; po, healthy males, 2400 mg oral, Day 1, N 11, read-out: AUClast, Geometric mean): 405 µg·h/mL
- AUC(0-t) ([1]; po, healthy males, 2400 mg oral, Day 1, N 11, read-out: AUClast, Mean): 409 µg·h/mL
- AUC(0-t) ([1]; po, healthy males, 2400 mg oral, Day 1, N 11, read-out: AUClast, Median): 422 µg·h/mL
- Cmax ([1]; po, healthy males, 2400 mg oral, Day 1, N 11, read-out: Cmax, Geometric mean): 43900 ng/mL
- Cmax ([1]; po, healthy males, 2400 mg oral, Day 1, N 11, read-out: Cmax, Mean): 45100 ng/mL
- Cmax ([1]; po, healthy males, 2400 mg oral, Day 1, N 11, read-out: Cmax, Median): 47000 ng/mL
- half-life ([1]; po, healthy males, 2400 mg oral, Day 1, N 11, read-out: T1/2, Geometric mean (converted)): 12.1 h
- half-life ([1]; po, healthy males, 2400 mg oral, Day 1, N 11, read-out: T1/2, Mean (converted)): 12.2 h
- half-life ([1]; po, healthy males, 2400 mg oral, Day 1, N 11, read-out: T1/2, Median (converted)): 12 h
- Tmax ([1]; po, healthy males, 2400 mg oral, Day 1, N 11, read-out: Tmax, Median): 1 h
- AUC ([1]; po, healthy males, 2400 mg oral, second dose, Day 3, N 11, read-out: AUC(0-24), Geometric mean): 350 µg·h/mL
- AUC ([1]; po, healthy males, 2400 mg oral, second dose, Day 3, N 11, read-out: AUC(0-24), Mean): 353 µg·h/mL
- AUC ([1]; po, healthy males, 2400 mg oral, second dose, Day 3, N 11, read-out: AUC(0-24), Median): 340 µg·h/mL
- AUC ([1]; po, healthy males, 2400 mg oral, second dose, Day 3, N 11, read-out: AUC(0-48), Geometric mean): 430 µg·h/mL
- AUC ([1]; po, healthy males, 2400 mg oral, second dose, Day 3, N 11, read-out: AUC(0-48), Mean): 436 µg·h/mL
- AUC ([1]; po, healthy males, 2400 mg oral, second dose, Day 3, N 11, read-out: AUC(0-48), Median): 428 µg·h/mL
- AUC(0-t) ([1]; po, healthy males, 2400 mg oral, second dose, Day 3, N 11, read-out: AUClast, Geometric mean): 455 µg·h/mL
- AUC(0-t) ([1]; po, healthy males, 2400 mg oral, second dose, Day 3, N 11, read-out: AUClast, Mean): 462 µg·h/mL
- AUC(0-t) ([1]; po, healthy males, 2400 mg oral, second dose, Day 3, N 11, read-out: AUClast, Median): 460 µg·h/mL
- Cmax ([1]; po, healthy males, 2400 mg oral, second dose, Day 3, N 11, read-out: Cmax, Geometric mean): 45300 ng/mL
- Cmax ([1]; po, healthy males, 2400 mg oral, second dose, Day 3, N 11, read-out: Cmax, Mean): 45600 ng/mL
- Cmax ([1]; po, healthy males, 2400 mg oral, second dose, Day 3, N 11, read-out: Cmax, Median): 47400 ng/mL
- half-life ([1]; po, healthy males, 2400 mg oral, second dose, Day 3, N 11, read-out: T1/2, Geometric mean (converted)): 15.3 h
- half-life ([1]; po, healthy males, 2400 mg oral, second dose, Day 3, N 11, read-out: T1/2, Mean (converted)): 15.6 h
- half-life ([1]; po, healthy males, 2400 mg oral, second dose, Day 3, N 11, read-out: T1/2, Median (converted)): 15.6 h
- Tmax ([1]; po, healthy males, 2400 mg oral, second dose, Day 3, N 11, read-out: Tmax, Median): 0.5 h
- finding after single oral dose (rat; in vivo, po, 2000 mg/kg): ataxia was noted
- time by which ataxia resolved (rat; in vivo, po, 2000 mg/kg): ≤ 24 h
- single oral dose up to which adverse effects were not observed (rat; single oral dose): up to 500 mg/kg
